Experimental data as given in PMC9158485, “Highly Efficient Biotransformation of Phenolic Glycosides Using a Recombinant β-Glucosidase From White Rot Fungus Trametes trogii” (Frontiers in Microbiology, 2022).

Test system: T1, TtBgl3
T1 construct: calculated 97 kDa; primer-encoded N-terminus MSRDFL, C-terminus FTWNGV; GH3, GH3_C and Fn3-like domains
Test: release of 4-nitrophenol at […] nm, Lineweaver-Burk
Assay type: biochemical, Trametes trogii
Conditions: 50°C, pH 5.5 (methods: phosphate citrate buffer 200 mM, pH 5.0, 55°C)

Q: For `O=[N+]([O-])c1ccc(O[C@@H]2O[C@H](CO)[C@@H](O)[C@H](O)[C@H]2O)cc1` [4-nitrophenyl β-D-glucopyranoside], which Km is on record?
A: Its Km is 550 µM.
